Assay results taken from patent US10670566B2, “Rapid antimicrobial susceptibility testing using piezoelectric sensor” (Drexel University, priority 2015, dated 2020).
In brackets after ≈: the same amount, converted by molar mass.

How the values were obtained:
[1] = pH of ampicillin solution measured using pH paper; format: physicochemical; settings: 1 mg/ml
E. coli [2] = settings: known MIC for the E. coli strain tested; cited from earlier work
E. coli [3] = assay: Antimicrobial susceptibility testing using PZT piezoelectric plate sensor (width mode resonance peak); format: cell-based
Experimental: After the PZT sensor was insulated with MPS and coated with APS, it was immersed in 5 ml of DI water to monitor the stability of width mode frequency peak for more than 30 min. If the peak was symmetric and stable, the sensor could be used for the antimicrobial testing.
E. coli suspension in broth was prepared. The concentration was about 10^9 cells/mi. The following procedure was used to replace the broth with DI water, since the ions in the broth might affect the spectrum of the sensor. The suspension was centrifuged at 3000 rpm/min for 5 min and the supernatant was removed. 5 mL of DI water was then added to the tube and the E. coli was re-suspended in DI water.
For the first a few tests (Tests 1-3), a drop of E. coli suspension (20 μl) was put on the sensor surface. After 10 min, the sensor was washed with 400 ml of DI water in a glass beaker 3 times to remove the unbound bacteria. The sensor was then returned to 5 ml of DI water and its width mode peak was monitored. In Test 4, instead of putting a drop of suspension on the sensor, the sensor was soaked in the E. coli suspension for 10 min. The washing step for Test 4 was the same as mentioned above.
After the sensor with E. coli was monitored for 5-10 min, various amounts of ampicillin were added to the DI water every 5 min to determine whether the antibiotics would have an effect on the frequency peak. For Test 1, 1 mg/ml ampicillin solution was made. Different volumes of the ampicillin solution ([…]) were added to the 5 ml of DI water to make the final concentrations of the ampicillin 1, 2, 4, 8, 16, and 32 μg/ml. In Tests 2-4 20 μl of ampicillin solutions of different concentrations (0.25, 0.25, 0.5, 1, 2, and 4 mg/ml) were added each time to make the final concentration of the ampicillin to 1, 2, 4, 8, 16, and 32 μg/ml.
To characterize the roundness of the peak shape, the raw data was smoothed first (as shown in FIG. 15. The amount of variation of the raw data from the smoothed data was calculated as the standard deviation (SD) of the raw data. The width of the top of the peak could be found when the phase angle was 1 times SD (or 2 times SD) smaller than the maximum phase angle in smoothed data. The more round the peak was, the smaller the width of the top of the peak would be. On the other hand, the more flat the peak was, the larger the width of the top of the top of the peak would be.

## CC1(C)S[C@@H]2[C@H](NC(=O)[C@H](N)c3ccccc3)C(=O)N2[C@H]1C(=O)O [ampicillin]
[1]
  pH value of the ampicillin solution: 3
E. coli [2]
  minimal inhibitory concentration (MIC): 8 µg/mL (≈ 22.9 µM)
E. coli [3]; Test 1
  change of SD of peak frequency after adding ampicillin, compared to the SD with E. coli: decreased a lot
E. coli [3]; Test 1 (results similar in Tests 2 and 3), E. coli on sensor in DI water, ampicillin 1-32 μg/ml added every 5 min
  ampicillin concentration at which the SD of the peak frequency reached its minimal point: 8 µg/mL
E. coli [3]; Test 4, different sensor, pH adjusted ampicillin, sensor soaked in E. coli suspension
  change of width of the top of the peak after adding ampicillin: decreased
E. coli [3]; Tests 1-3
  change of width of the top of the peak after adding ampicillin: started to decrease
